What follows are molecules tested against T1, human type 1 glycine transporter (GlyT1) (Homo sapiens, UniProt P48067) (assay: Glycine uptake inhibition experiment ([3H]glycine uptake)). Details: GlyT1.
T1 construct: T98G cells (glioma cells) expressing human type 1 glycine transporter (GlyT1) were used
T1 sequence (P48067 1-706): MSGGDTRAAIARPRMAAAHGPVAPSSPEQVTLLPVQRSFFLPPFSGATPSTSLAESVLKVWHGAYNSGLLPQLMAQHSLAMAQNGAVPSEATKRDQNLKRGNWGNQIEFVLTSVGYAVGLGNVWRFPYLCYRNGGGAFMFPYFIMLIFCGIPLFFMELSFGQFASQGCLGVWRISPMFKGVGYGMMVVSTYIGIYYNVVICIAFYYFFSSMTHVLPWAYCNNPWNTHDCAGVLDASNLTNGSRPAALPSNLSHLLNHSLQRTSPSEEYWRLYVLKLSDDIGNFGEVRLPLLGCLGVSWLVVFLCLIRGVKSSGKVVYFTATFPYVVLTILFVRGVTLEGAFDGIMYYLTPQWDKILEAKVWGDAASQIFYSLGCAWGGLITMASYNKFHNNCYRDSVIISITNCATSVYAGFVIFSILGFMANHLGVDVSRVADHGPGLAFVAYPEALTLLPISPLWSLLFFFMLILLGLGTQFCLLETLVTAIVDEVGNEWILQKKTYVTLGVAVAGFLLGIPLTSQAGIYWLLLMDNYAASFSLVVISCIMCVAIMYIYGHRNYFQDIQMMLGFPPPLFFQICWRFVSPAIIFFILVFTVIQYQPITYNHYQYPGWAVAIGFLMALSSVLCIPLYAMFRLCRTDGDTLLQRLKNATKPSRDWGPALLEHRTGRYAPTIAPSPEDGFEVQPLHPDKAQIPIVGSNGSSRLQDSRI
Type: cell-based
In short: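 T98G glioma cells expressing human GlyT1 were pretreated 10 min with compound in HEPES buffer pH 7.4 (0.2% BSA), then incubated with compound plus 250 nM final [3H]glycine for 15 min at room temperature. Intracellular radioactivity was counted after NaOH lysis; 10 μM ALX5407 defined non-specific uptake. IC50 came from 10^−9–10^−5 M curves.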
An IC50 of 1800 nM was found for `CS(=O)(=O)c1cc(C(F)(F)F)cnc1C(=O)NC(c1cccc(F)c1Cl)[C@]1(O)CC[C@@H](F)CC1` (single isomer, unassigned) [Compound 389, N-[(2-chloro-3-fluorophenyl)(cis-4-fluoro-1-hydroxycyclohexyl)methyl]-3-(methylsulfonyl)-5-(trifluoromethyl)pyridine-2-carboxamide] in this work.
An IC50 of 420 nM was found for `O=C(NC(c1cccc(F)c1Cl)[C@]1(O)CC[C@@H](F)CC1)c1cc(Cl)ccc1C(F)(F)F` (single isomer, unassigned) [Compound 314, 5-chloro-N-[(2-chloro-3-fluorophenyl)(cis-4-fluoro-1-hydroxycyclohexyl)methyl]-2-(trifluoromethyl)benzamide] in this work.
An IC50 of 910 nM was found for `O=C(NC(c1cccc(F)c1Cl)[C@]1(O)CC[C@@H](F)CC1)c1ccc(Cl)cc1Cl` (single isomer, unassigned) [Compound 264, 2,4-dichloro-N-[(2-chloro-3-fluorophenyl)(cis-4-fluoro-1-hydroxycyclohexyl)methyl]benzamide] in this work.
An IC50 of 5200 nM was found for `O=C(NC(c1ccc(F)cc1Cl)C1(O)CCCC1)c1nccc(C(F)(F)F)c1Cl` (single isomer, unassigned) [Compound 99, 3-chloro-N-[(2-chloro-4-fluorophenyl)(1-hydroxycyclopentyl)methyl]-4-(trifluoromethyl)pyridine-2-carboxamide] in this work.
An IC50 of 100 nM was found for `CS(=O)(=O)c1cc(C(F)(F)F)ccc1C(=O)NC(c1cccc(F)c1Cl)[C@]1(O)CC[C@@H](F)CC1` (single isomer, unassigned) [Compound 373, N-[(2-chloro-3-fluorophenyl)(cis-4-fluoro-1-hydroxycyclohexyl)methyl]-2-(methylsulfonyl)-4-(trifluoromethyl)benzamide] in this work.
An IC50 of 1100 nM was found for `O=C(NC(c1cc(Cl)ccn1)C1(O)CCC(F)(F)CC1)c1nccc2ccccc12` (single isomer, unassigned) [Compound 349, N-[(4-chloropyridin-2-yl)(4,4-difluoro-1-hydroxycyclohexyl)methyl]isoquinoline-1-carboxamide] in this work.
An IC50 of 60 nM was found for `O=C(NC(c1ccccc1Br)C1(O)CCCC1)c1nccc(C(F)(F)F)c1Cl` (centres unmarked) [Compound 32, N-[(2-bromophenyl)(1-hydroxycyclopentyl)methyl]-3-chloro-4-(trifluoromethyl)pyridine-2-carboxamide] in this work.
An IC50 of 630 nM was found for `O=C(NC(c1ccc(F)c(F)c1F)C1(O)CCC(F)(F)CC1)c1nccc(C(F)(F)F)c1Cl` (centres unmarked) [Compound 170, 3-chloro-N-[(4,4-difluoro-1-hydroxycyclohexyl)(2,3,4-trifluorophenyl)methyl]-4-(trifluoromethyl)pyridine-2-carboxamide] in this work.
An IC50 of 3800 nM was found for `CCn1cc(-c2cccc(C(NC(=O)c3nccc(C(F)(F)F)c3Cl)C3(O)CCC(F)(F)CC3)c2)cn1` (single isomer, unassigned) [Compound 91, 3-chloro-N-{(4,4-difluoro-1-hydroxycyclohexyl)[3-(1-ethyl-1H-pyrazol-4-yl)phenyl]methyl}-4-(trifluoromethyl)pyridine-2-carboxamide] in this work.
An IC50 of 260 nM was found for `O=C(NC(c1cc(Cl)ccc1Cl)C1(O)CCC(F)(F)CC1)c1nccc(C(F)(F)F)c1Cl` (centres unmarked) [Compound 148, 3-chloro-N-[(2,5-dichlorophenyl)(4,4-difluoro-1-hydroxycyclohexyl)methyl]-4-(trifluoromethyl)pyridine-2-carboxamide] in this work.
An IC50 of 290 nM was found for `CS(=O)(=O)c1ccc(C(F)(F)F)cc1C(=O)NC(c1cc(Cl)ccn1)[C@]1(O)CC[C@@H](F)CC1` (single isomer, unassigned) [Compound 396, N-[(4-chloropyridin-2-yl)(cis-4-fluoro-1-hydroxycyclohexyl]methyl]-2-(methylsulfonyl)-5-(trifluoromethyl)benzamide] in this work.
An IC50 of 830 nM was found for `CCn1cc(-c2cccc(C(NC(=O)c3nccc(C(F)(F)F)c3Cl)C3(O)CCCC3)c2)cn1` (single isomer, unassigned) [Compound 13, 3-chloro-N-{[3-(1-ethyl-1H-pyrazol-4-yl)phenyl](1-hydroxycyclopentyl)methyl}-4-(trilfuoromethyl)pyridine-2-carboxamide] in this work.
An IC50 of 35 nM was found for `CS(=O)(=O)c1cnc(C(F)(F)F)cc1C(=O)NC(c1cccc(F)c1Cl)[C@]1(O)CC[C@@H](F)CC1` (single isomer, unassigned) [Compound 386, N-[(2-chloro-3-fluorophenyl)(cis-4-fluoro-1-hydroxycyclohexyl)methyl]-5-(methylsulfonyl)-2-(trifluoromethyl)pyridine-4-carboxamide] in this work.
An IC50 of 990 nM was found for `O=C(NC(c1cccc(F)c1Cl)[C@]1(O)CC[C@@H](F)CC1)c1cccc(C(F)(F)F)c1F` (single isomer, unassigned) [Compound 245, N-[(2-chloro-3-flurophenyl)(cis-4-fluoro-1-hydroxycyclohexyl)methyl]-2-fluoro-3-(trifluoromethyl)benzamide] in this work.
An IC50 of 150 nM was found for `O=C(N[C@@H](c1cccc(Cl)c1)[C@]1(O)CC[C@@H](F)CC1)c1ccnc(C(F)(F)F)c1Cl` [Compound 186, 3-chloro-N-[(S)-(3-chlorophenyl)(cis-4-fluoro-1-hydroxycyclohexyl)methyl]-2-(trifluoromethyl)pyridine-4-carboxamide] in this work.
An IC50 of 1600 nM was found for `O=C(NC(c1cccc(F)c1Cl)[C@]1(O)CC[C@@H](F)CC1)c1ncc(Cl)cc1-n1nccn1` (single isomer, unassigned) [Compound 371, 5-chloro-N-[(2-chloro-3-fluorophenyl)(cis-4-fluoro-1-hydroxycyclohexyl)methyl]-3-(2H-1,2,3-triazol-2-yl)pyridine-2-carboxamide] in this work.
An IC50 of 120 nM was found for `O=C(N[C@@H](c1cccc(F)c1)C1(O)CCC(F)(F)CC1)c1nccc(C(F)(F)F)c1Cl` (single isomer, unassigned) [Compound 233, 3-chloro-N-[(4,4-difluoro-1-hydroxycyclohexyl)(3-fluorophenyl)methyl]-4-(trifluoromethyl)pyridine-2-carboxamide] in this work.
An IC50 of 480 nM was found for `O=C(NC(c1ccccc1)C1(O)CCCC1)c1nccc(C(F)(F)F)c1Cl` (centres unmarked) [Compound 12, 3-chloro-N-[(1-hydroxycyclopentyl)(phenyl)methyl]-4-(trifluoromethyl)pyridine-2-carboxamide] in this work.
An IC50 of 96 nM was found for `O=C(NC(c1cccc(Cl)n1)[C@]1(O)CC[C@@H](F)CC1)c1ccnc(C(F)(F)F)c1Cl` (single isomer, unassigned) [Compound 338, 3-chloro-N-[(6-chloropyridin-2-yl)(cis-4-fluoro-1-hydroxycyclohexyl)methyl]-2-(trifluoromethyl)pyridine-4-carboxamide] in this work.
An IC50 of 21 nM was found for `O=C(NC(c1cccc(Cl)n1)C1(O)CCCC1)c1nccc(C(F)(F)F)c1Cl` (centres unmarked) [Compound 383, 3-chloro-N-[(6-chloropyridin-2-yl)(1-hydroxycyclopentyl)methyl]-4-(trifluoromethyl)pyridine-2-carboxamide] in this work.
An IC50 of 530 nM was found for `CCn1cc(-c2cccc(C(NC(=O)c3cccc(Cl)c3Cl)C3(O)CCC(F)(F)CC3)c2)cn1` (single isomer, unassigned) [Compound 144, 2,3-dichloro-N-{(4,4-difluoro-1-hydroxycyclohexyl)[3-(1-ethyl-1H-pyrazol-4-yl)phenyl]methyl}benzamide] in this work.
An IC50 of 200 nM was found for `O=C(NC(c1ccccc1F)C1(O)CCCC1)c1nccc(C(F)(F)F)c1Cl` (single isomer, unassigned) [Compound 60, 3-chloro-N-[(2-fluorophenyl)(1-hydroxycyclopentyl)methyl]-4-(trifluoromethyl)pyridine-2-carboxamide] in this work.
An IC50 of 240 nM was found for `O=C(NC(c1cccc(Cl)n1)[C@]1(O)CC[C@@H](F)CC1)c1ccc(C(F)(F)F)cc1Cl` (single isomer, unassigned) [Compound 363, 2-chloro-N-[(6-chloropyridin-2-yl)(cis-4-fluoro-1-hydroxycyclohexyl)methyl]-4-(trifluoromethyl)benzamide] in this work.
An IC50 of 2100 nM was found for `O=C(NC(c1cccc(F)c1Cl)[C@]1(O)CC[C@@H](F)CC1)c1cc(F)ccc1Cl` (single isomer, unassigned) [Compound 295, 2-chloro-N-[(2-chloro-3-fluorophenyl)(cis-4-fluoro-1-hydroxycyclohexyl)methyl]-5-fluorobenzamide] in this work.
An IC50 of 900 nM was found for `O=C(NC(c1cccc(F)c1Cl)[C@]1(O)CC[C@@H](F)CC1)c1cccc(Cl)c1Cl` (single isomer, unassigned) [Compound 248, 2,3-dichloro-N-[(2-chloro-3-fluorophenyl)(cis-4-fluoro-1-hydroxycyclohexyl)methyl]benzamide] in this work.
An IC50 of 3500 nM was found for `CS(=O)(=O)c1ccc(Cl)c(C(=O)NC(c2cccc(F)c2Cl)[C@]2(O)CC[C@@H](F)CC2)c1` (single isomer, unassigned) [Compound 296, 2-chloro-N-[(2-chloro-3-fluorophenyl)(cis-4-fluoro-1-hydroxycyclohexyl)methyl]-5-(methylsuflonyl)benzamide] in this work.

From US20160130278A1 (TAISHO PHARMACEUTICAL CO., LTD, priority 2013, published 2016)
